Measurements published in patent publication US20200164100A1, “SURGICAL METHODS EMPLOYING PURIFIED AMPHIPHILIC PEPTIDE COMPOSITIONS” (priority 2013, published 2020).

Test system: signal transduction system of living organisms
Experiment: Cell culture experiments on bioactivity of the main constituent peptide
Type: cell-based
Conditions: data not shown

Q: CH3CO-(Arg-Ala-Asp-Ala)4-NH2 was tested. Which “bioactivity by acting on the signal transduction system of living organisms” value did it give?
A: does not exhibit bioactivity
